Here are results for 24 molecules from patent US20240190831A1, “TRANSTHYRETIN STABILIZING COMPOUNDS” (Protego Biopharma, Inc., priority 2021, published 2024).

Structures can show the parent of a compound that is named as a salt.

The series is described as follows: In vitro rat liver S9 stability assay (formation of tafamidis). Conditions: rat liver S9, 1 μM test compound, 37° C. It is filed as in vitro ADME. The protocol:
A stability assay in liver S9 (rat or human) was used to evaluate the ability of a compound provided herein to convert to an active TTR stabilizer. The test compound was added to liver S9 and incubated at 37° C. in a water bath at a concentration of 1 μM. At each time point (0, 5, 10, 20, 30 and 60 min), stop solution (tolbutamide plus labetalol) was added to precipitate protein and mixed thoroughly. After centrifugation, an aliquot of supernatant was analyzed by LC-MS/MS. The percentage of formation of active agent was calculated at each time point.
As to `O=C(N[C@@H]1CCC[C@@H]1O)c1ccc2nc(-c3cc(Cl)cc(Cl)c3)oc2c1` (relative stereo) [Compound 28, 2-(3,5-dichlorophenyl)-N-((cis)-2-hydroxycyclopentyl)benzo-[d]oxazole-6-carboxamide], the “Formation of tafamidis at 60 min” value is “A (A is <25%)”. On to `O=C(N[C@@H]1CCC[C@H]1O)c1ccc2nc(-c3cc(Cl)cc(Cl)c3)oc2c1` (relative stereo) [Compound 29, 2-(3,5-dichlorophenyl)-N-((trans)-2-hydroxycyclopentyl)benzo-[d]oxazole-6-carboxamide], for which the “Formation of tafamidis at 60 min” value is on record as “A (A is <25%)”. Take `O=C(N[C@@H]1CC[C@H](O)C1)c1ccc2nc(-c3cc(Cl)cc(Cl)c3)oc2c1` (relative stereo) [Compound 30, 2-(3,5-dichlorophenyl)-N-((cis)-3-hydroxycyclopentyl)benzo-[d]oxazole-6-carboxamide]: the “Formation of tafamidis at 60 min” value was “A (A is <25%)”. Take `O=C(N[C@@H]1CC[C@@H](O)C1)c1ccc2nc(-c3cc(Cl)cc(Cl)c3)oc2c1` (relative stereo) [Compound 31, 2-(3,5-dichlorophenyl)-N-((trans)-3-hydroxycyclopentyl)benzo-[d]oxazole-6-carboxamide]: the “Formation of tafamidis at 60 min” value was “A (A is <25%)”. As for `O=C(N[C@@H]1CCCC[C@@H]1O)c1ccc2nc(-c3cc(Cl)cc(Cl)c3)oc2c1` (relative stereo) [Compound 32, 2-(3,5-dichlorophenyl)-N-((cis)-2-hydroxycyclohexyl)benzo-[d]oxazole-6-carboxamide], the entry is “A (A is <25%)”; as for `O=C(N[C@@H]1CCCC[C@H]1O)c1ccc2nc(-c3cc(Cl)cc(Cl)c3)oc2c1` (relative stereo) [Compound 33, 2-(3,5-dichlorophenyl)-N-((trans)-2-hydroxycyclohexyl)benzo-[d]oxazole-6-carboxamide], “A (A is <25%)”; as for `CN(C)[C@H]1CC[C@@H](OC(=O)c2ccc3nc(-c4cc(Cl)cc(Cl)c4)oc3c2)C1` (relative stereo) [Compound 46, Cis-3-(dimethylamino)cyclopentyl 2-(3,5-dichlorophenyl)benzo-[d]oxazole-6-carboxylate—HCl salt], “A (A is <25%)”. Consider `CN(C)[C@@H]1CC[C@@H](OC(=O)c2ccc3nc(-c4cc(Cl)cc(Cl)c4)oc3c2)C1` (relative stereo) [Compound 47, Trans-3-(dimethylamino)cyclopentyl 2-(3,5-dichlorophenyl)benzo-[d]oxazole-6-carboxylate—HCl salt], for which the “Formation of tafamidis at 60 min” value is reported as “A (A is <25%)”. Take `O=C(O[C@H]1CCN2CCC[C@H]12)c1ccc2nc(-c3cc(Cl)cc(Cl)c3)oc2c1` (relative stereo) [Compound 58, (cis)-hexahydro-1H-pyrrolizin-1-yl 2-(3,5-dichlorophenyl)benzo[d]oxazole-6-carboxylate]: the “Formation of tafamidis at 60 min” value is given as “A (A is <25%)”. As for `O=C(O[C@H]1CCN2CCC[C@@H]12)c1ccc2nc(-c3cc(Cl)cc(Cl)c3)oc2c1` (relative stereo) [Compound 59, (trans)-hexahydro-1H-pyrrolizin-1-yl 2-(3,5-dichlorophenyl)benzo[d]oxazole-6-carboxylate], the entry is “A (A is <25%)”; as for `CC(CO)OC(=O)c1ccc2nc(-c3cc(Cl)cc(Cl)c3)oc2c1` (single isomer, unassigned) [Compound 43, 1-hydroxypropan-2-yl 2-(3,5-dichlorophenyl) benzo[d]oxazole-6-carboxylate], “C (C is ≥50 to <75%)”.

As to `CC(CO)OC(=O)c1ccc2nc(-c3cc(Cl)cc(Cl)c3)oc2c1` (single isomer, unassigned) [Compound 44, 1-hydroxypropan-2-yl 2-(3,5-dichlorophenyl) benzo[d]oxazole-6-carboxylate], the “Formation of tafamidis at 60 min” value is reported as “C (C is ≥50 to <75%)”. Regarding `O=C(O[C@H]1CCCN2CCC[C@H]12)c1ccc2nc(-c3cc(Cl)cc(Cl)c3)oc2c1` (single isomer, unassigned) [Compound 69, Octahydroindolizin-8-yl 2-(3,5-dichlorophenyl)benzo[d]oxazole-6-carboxylate], the “Formation of tafamidis at 60 min” value is on record as “A (A is <25%)”. With `O=C(O[C@H]1CCCN2CCC[C@@H]12)c1ccc2nc(-c3cc(Cl)cc(Cl)c3)oc2c1` (single isomer, unassigned) [Compound 70, Octahydroindolizin-8-yl 2-(3,5-dichlorophenyl)benzo[d]oxazole-6-carboxylate], the “Formation of tafamidis at 60 min” value is “A (A is <25%)”.

For `O=C(O[C@H]1CCCN2CCCC[C@H]12)c1ccc2nc(-c3cc(Cl)cc(Cl)c3)oc2c1` (single isomer, unassigned) [Compound 71, Octahydro-1H-quinolizin-1-yl 2-(3,5-dichlorophenyl)benzo[d]oxazole-6-carboxylate], the “Formation of tafamidis at 60 min” value is reported as “B (B is ≥25 to <50%)”. For the molecule `O=C(O[C@H]1CCCN2CCCC[C@@H]12)c1ccc2nc(-c3cc(Cl)cc(Cl)c3)oc2c1` (single isomer, unassigned) [Compound 72, Octahydro-1H-quinolizin-1-yl 2-(3,5-dichlorophenyl)benzo[d]oxazole-6-carboxylate], the “Formation of tafamidis at 60 min” value was “A (A is <25%)”. The result for `CC(F)(F)CNC(=O)c1ccc2nc(-c3cc(Cl)cc(Cl)c3)oc2c1` [Compound 1, 2-(3,5-dichlorophenyl)-N-(2,2-difluoropropyl)benzo[d]oxazole-6-carboxamide] reads “A (A is <25%)”; that for `CC(NC(=O)c1ccc2nc(-c3cc(Cl)cc(Cl)c3)oc2c1)C(F)F` (stereo not drawn) [Compound 2, 2-(3,5-dichlorophenyl)-N-(1,1-difluoropropan-2-yl)benzo[d]oxazole-6-carboxamide], “A (A is <25%)”. Regarding `O=C(NCC(F)(F)C(F)(F)F)c1ccc2nc(-c3cc(Cl)cc(Cl)c3)oc2c1` [Compound 3, 2-(3,5-dichlorophenyl)-N-(2,2,3,3,3-pentafluoropropyl)benzo[d]oxazole-6-carboxamide], the “Formation of tafamidis at 60 min” value was “A (A is <25%)”. On to `NC(=O)c1ccc2nc(-c3cc(Cl)cc(Cl)c3)oc2c1` [Compound 4, 2-(3,5-dichlorophenyl)benzo[d]oxazole-6-carboxamide], for which the “Formation of tafamidis at 60 min” value is given as “A (A is <25%)”.

Regarding `N#CCNC(=O)c1ccc2nc(-c3cc(Cl)cc(Cl)c3)oc2c1` [Compound 5, N-(cyanomethyl)-2-(3,5-dichlorophenyl)benzo[d]oxazole-6-carboxamide], the “Formation of tafamidis at 60 min” value is listed as “A (A is <25%)”. Take `COCCNC(=O)c1ccc2nc(-c3cc(Cl)cc(Cl)c3)oc2c1` [Compound 6, 2-(3,5-dichlorophenyl)-N-(2-methoxyethyl)benzo[d]oxazole-6-carboxamide]: the “Formation of tafamidis at 60 min” value is given as “A (A is <25%)”. `CN(C)CCN(C)C(=O)c1ccc2nc(-c3cc(Cl)cc(Cl)c3)oc2c1` [Compound 8, 2-(3,5-dichlorophenyl)-N-(2-(dimethylamino)ethyl)-N-methylbenzo[d]oxazole-6-carboxamide]: the “Formation of tafamidis at 60 min” value was “A (A is <25%)”. On to `CNCCNC(=O)c1ccc2nc(-c3cc(Cl)cc(Cl)c3)oc2c1` [Compound 9, 2-(3,5-dichlorophenyl)-N-(2-(methylamino)ethyl)benzo[d]oxazole-6-carboxamide hydrochloride], for which the “Formation of tafamidis at 60 min” value was “A (A is <25%)”.
